Laboratory results taken from patent publication US5834462A, “Tricyclic heterocyclic sulfonamide and sulfonic ester derivatives” (Eisai Co., Ltd., priority 1993, dated 1998).
Values after ≈ are worked out from the molar mass of the structure shown.

What follows are compounds tested on KB cells (human nasopharyngeal cancer cells) (assay: in vitro Antitumor test on KB cells (MTT)). Settings: 72 h, 3 days incubation.
Format: cell-based
Procedure: in vitro Antitumor test on KB cells (human nasopharyngeal cancer cells)
KB cells suspended in an RPMI1640 medium (mfd. by Nissui Seiyaku K. K.), which contained 10% of fetal calf serum, 100 U/mi of penicillin, 100 μg/ml of streptomycin, 5×10^-5 M of mercaptoethanol and 1 mM of sodium pyruvate, were inoculated in 1.25×10^3 portions (0.1 ml) into wells of a 96-well flat-bottomed microplate and then incubated in an incubator containing 5% of carbon dioxide at 37° C. for a day.
A compound of the present invention was dissolved in dimethyl sulfoxide in a concentration of 20 mg/ml and diluted with a 10% fetal calf serum-RPMI1640 culture medium to a concentration of 100 μg/ml. By using this concentration as the highest level, threefold serial dilution was performed with a 10% fetal calf serum-RPMI1640 culture medium. Then it was added in 0.1 ml portions into the wells of the above-mentioned plate wherein the KB cells had been incubated followed by incubation in the incubator containing 5% of carbon dioxide at 37° C. for 3 days.
After incubating, an MTT (3-(4,5-dimethylthiazol-2-yl)-2,5-diphenyltetrazolium bromide) solution (3.3 mg/ml) was added in 0.05 ml portions into the wells and the incubation was effected for additional 1 hour. After sucking off the supernatant from each well, the formazane thus formed was dissolved in 0.1 ml of dimethyl sulfoxide. Then the absorbance at 540 nm was measured with a microplate reader and employed as an indication of the vital cell count. In accordance with the following equation, the inhibitory ratio was calculated and the 50% inhibitory concentration (IC50) of the test compound was determined. [formula] T: absorbance of a well containing the test commpound. C: absorbance of a well containing no test compound.

Point of comparison: `COc1ccc(S(=O)(=O)Nc2cccc3c2Nc2ncccc2O3)cc1` [Example 15, 4-Methoxy-N-(10H-pyrido(3,2-b)(1,4)benzoxazin-9-yl)-benzenesulfonamide], IC50 0.15 µg/mL (≈ 0.406 µM). Against it:
- COc1ccc(S(=O)(=O)Nc2cccc3c(=O)c4ccccc4[nH]c23)cc1 [Example 4, N-(9(10H)-Acridinon-4-yl)-4-methoxyhenzenesulfonamide] — within 1.5-fold, 0.17 µg/mL (≈ 0.447 µM)
- COc1ccc(S(=O)(=O)Nc2cccc3c2Nc2ccccc2CS3)cc1 [Example 26, N-(5,11-Dihydrobenzo(b,e)(1,4)thiazepin-6-yl)-4-metboxybenzenesulfonamide] — the same, 0.15 µg/mL (≈ 0.376 µM)
- COc1ccc(S(=O)(=O)Nc2cccc3c2Nc2c(Cl)cc(F)c(O)c2CN3)cc1 [Example 46, N-(4-Chloro-10,11-dihvdro-2-fluoro-1-hvdroxy-5-dibenzo(b,e)(1,4)diazepin-6-yl)-4-methoxybenzene-sulfonamide] — 1.7-fold higher, 0.25 µg/mL (≈ 0.556 µM)
- COc1ccc(S(=O)(=O)Nc2cccc3oc4cc(=O)ccc-4nc23)cc1 [Example 24, 4-Methoxy-N-(3H-phenoxazin-3-on-9-yl)benzene-sulfonamide] — 25-fold lower, 0.0061 µg/mL (≈ 0.016 µM)
- Cc1ccc(S(=O)(=O)Nc2cccc3c2Nc2ccc(O)cc2CO3)s1 [Example 42, N-(5,11-Dihydro-2-hydroxydihenz(b,e)(1,4)oxazepin-6-yl)-5-methyl-2-thiopbhenesulfonamide] — within 1.5-fold, 0.13 µg/mL (≈ 0.335 µM)
- Nc1ccc(S(=O)(=O)Nc2cccc3c2Nc2ccccc2S3)cc1 [Example 34, 4-Amino-N-(10-phenothiazin-1-yl)benzenesulfonamide] — 1.7-fold higher, 0.25 µg/mL (≈ 0.677 µM)
- COc1ccc(S(=O)(=O)Nc2cccc3c2Nc2ccc(F)c(O)c2CN3)cc1 [Example 47, N-(10,11-Dihydro-2-fluoro-1-hydroxy-5H-dibenzo(b,e)-(1,4)diazepin-6-yl)-4-methoxybenzenesulfonamide] — 1.9-fold lower, 0.078 µg/mL (≈ 0.188 µM)
- COc1ccc(S(=O)(=O)Nc2cccc3c2Nc2ccc(CO)cc2O3)cc1 [Example 33, N-(7-Hydroxymethyl-10-phenoxazin-1-yl)-4-methoxy-benzenesulfonamide] — 3.5-fold lower, 0.043 µg/mL (≈ 0.108 µM)
- Cc1ccc(S(=O)(=O)Nc2cccc3c2Nc2ccc(O)cc2CO3)cc1 [Example 38, N-(5,11-Ditiydro-2-hydroxydihenz(b,e)(1,4)oxazepin-6-yl)-4-methylbenzenesulfonamide] — 3.2-fold lower, 0.047 µg/mL (≈ 0.123 µM)
- COc1ccc(S(=O)(=O)Nc2cccc3c2Nc2ccc(F)cc2CN3)cc1 [Example 32, N-(10,11-Dihydro-2-fluoro-5dibenzo(b,e) (1,4)-diazepin-6-yl)-4-methoxybenzenesulfonamide] — 1.8-fold lower, 0.082 µg/mL (≈ 0.205 µM)
- COc1ccc(S(=O)(=O)Nc2cccc3c(=O)c4cc(O)ccc4[nH]c23)cc1 [Example 20, N-(7-Hydroxy-9(10H)-acridinon-4-yl)-4-methoxybenzene-sulfonamide] — within 1.5-fold, 0.11 µg/mL (≈ 0.277 µM)
- COc1ccc(S(=O)(=O)Nc2cccc3c2Nc2cc(F)c(F)cc2S3)cc1 [Example 28, N-(7,8-Difluoro-10-pbenothiazin-1-yl)-4-methoxy-benenesulfonamide] — 2.2-fold lower, 0.069 µg/mL (≈ 0.164 µM)
- COc1ccc(S(=O)(=O)Nc2cccc3c2N(C)c2ccccc2O3)cc1 [Example 29, 4-Methoxy-N-(10-methyl-10H-phenoxazin-1-yl)benzene-sulfonamide] — within 1.5-fold, 0.11 µg/mL (≈ 0.288 µM)
- COc1ccc(S(=O)(=O)Nc2cc(F)cc3c2Nc2ccc(O)cc2CO3)cc1 [Example 39, N-(5,11-Dihydro-8-fluoro-2-hdroxydihenz(b,e)(1,4)-oxazepin-6-yl)-4-methoxybenrzenesilfonamide] — 1.7-fold higher, 0.26 µg/mL (≈ 0.624 µM)
- COc1ccc(S(=O)(=O)Nc2cccc3c2Nc2ccc(O)cc2CO3)cc1 [Example 30, N-(5,11-Dibydro-2-bydroxydihenz(b,e)(1,4)oxazepin-6-yl)-4-methoxybenzensulfonamide] — 5.4-fold lower, 0.028 µg/mL (≈ 0.0703 µM)
- COc1ccc(S(=O)(=O)Nc2cccc3c2Nc2ccc(NC(C)=O)cc2CN3)cc1 [Example 43, N-(2-Acetylamino-10,11-dibydro-5H-dibhenz(b,e)(1,4)-diazepin-6-yl)-4-methoxybenzenesulfonamide] — within 1.5-fold, 0.22 µg/mL (≈ 0.502 µM)
- COc1ccc(S(=O)(=O)Nc2cccc3c2Nc2ccc(C#N)cc2CN3)cc1 [Example 48, N-(2-Cyano-10,11-dihydro-5H-dibenzo(b,e)(1,4)diazepin-6-yl)-4-methoxybenzenesulfonamide] — 5.4-fold lower, 0.028 µg/mL (≈ 0.0689 µM)
- COc1ccc(S(=O)(=O)Nc2cccc3c2Nc2cncnc2S3)cc1 [Example 35, 4-Melthoxy-N-(5H-pyrimido(4,5-b)(1,4)benzothizin-6-yl)benzenesulfonamide] — 1.7-fold higher, 0.25 µg/mL (≈ 0.647 µM)
- COc1ccc(S(=O)(=O)Nc2cccc3c2Nc2ccccc2OC3)cc1 [Example 40, N-(5,11-Dihydrodibenz(b,e)(1,4)oxalelpin-4-yl)-4-methoxybenzenesulfonamide] — 4.7-fold lower, 0.032 µg/mL (≈ 0.0837 µM)
- COc1ccc(S(=O)(=O)Nc2cccc3c2Nc2ccccc2C=C3)cc1 [Example 9, N-(5H-Dibenz[b,f]azepin-4-yl)-4-methoxybenzene-sulfonamilde] — 1.5-fold higher, 0.23 µg/mL (≈ 0.608 µM)
- COc1ccc(S(=O)(=O)Nc2cccc3c2[nH]c2ccccc23)cc1 [Example 2, N-(9H-Carbazol-1-yl)-4-methoxybenzenesulfornamide] — within 1.5-fold, 0.1 µg/mL (≈ 0.284 µM)
- COc1ccc(S(=O)(=O)Nc2cccc3cc4ccccc4nc23)cc1 [Example 14, N-(4-Acridinyl)-4-methoxybenzenesulfonamide] — 5.8-fold lower, 0.026 µg/mL (≈ 0.0713 µM)
- COc1ccc(S(=O)(=O)Nc2cccc3c2Nc2ccccc2CO3)cc1 [Example 17, N-(5,11-Dihydrpdibenz(b,e)(1,4)oxazepin-6-yl)-4-methoxybenzenesulfonamide] — 5-fold lower, 0.03 µg/mL (≈ 0.0784 µM)
- COc1ccc(S(=O)(=O)Nc2cccc3c2NC(=O)c2ccccc2O3)cc1 [Example 12, N-(Dibenrz(b,f)(1,4)oxazepin-11(10H)-on-9-yl)-4-methoxybenzenelfonamide] — 1.7-fold higher, 0.25 µg/mL (≈ 0.631 µM)
- COc1ccc(S(=O)(=O)Nc2cccc3c2Nc2ccc(F)c(O)c2CO3)cc1 [Example 45, N-(5,11-Dihydro-2-fluoro-1-hydroxydibenz(b,e)-(1,4)oxazepin-6-yl)-4-methoxybenzenesulfonamide] — 9.4-fold lower, 0.016 µg/mL (≈ 0.0384 µM)
- COc1ccc(S(=O)(=O)Nc2cccc3sc4cc(=O)ccc-4nc23)cc1 [Example 25, 4-Methoxy-N-(3-phenothiazin-3-on-9-yl)benzene-sulfonamide] — 9.4-fold lower, 0.016 µg/mL (≈ 0.0402 µM)
- COc1ccc(S(=O)(=O)Nc2cccc3c2Nc2ccc(O)cc2O3)cc1 [Example 22, N-(7-Hvdroxy-10H-phenoxain-1-yl)-4-methoxybenzene-sulfonamide] — within 1.5-fold, 0.17 µg/mL (≈ 0.442 µM)
- COc1ccc(S(=O)(=O)Nc2cccc3c2Nc2cccnc2O3)cc1 [Example 16, 4-Methoxy-N-(5H-pyrido(2,3-b)(1,4)benzoxazin-6-yl)-benzenesulfonamide] — 6.8-fold lower, 0.022 µg/mL (≈ 0.0596 µM)
- COc1ccc(S(=O)(=O)Nc2cccc3c2Nc2ccc(C)cc2CN3)cc1 [Example 31, N-10,11-Dihydro-2-methyl-5H-dihenzn(b,e)(1,4)-diazepin-6-yl)-4-methoxyhenenesulfonamide] — 1.8-fold higher, 0.27 µg/mL (≈ 0.683 µM)
- COc1ccc(S(=O)(=O)Nc2cccc3c2Nc2ccc(OCCCO)cc2CN3)cc1 [Example 44, N-(10,11-Dihydro-2-(3-hydroxypropyloxy)-5H-dibenzo-(b,e)(1,4)(diazepin-6-yl)4-metbhoxybenzenesulfonamide] — 1.9-fold lower, 0.077 µg/mL (≈ 0.169 µM)
- CCN1Cc2ccccc2Nc2c(NS(=O)(=O)c3ccc(OC)cc3)cccc21 [Example 41, N-(10,11-Dihydro-10-ethyl-5H-dihenzo(b,e)(1,4)-diazepin-6-yl)-4-meltoxybenzenesulfonamnide] — 1.9-fold higher, 0.28 µg/mL (≈ 0.684 µM)
- COc1ccc(S(=O)(=O)Nc2cccc3c2Nc2ccccc2O3)cc1 [Example 5, 4-Methoxy-N-(10H-phenoxazin-1-yl)benzenesulfonamide] — 1.9-fold lower, 0.08 µg/mL (≈ 0.217 µM)
- COc1ccc(S(=O)(=O)Nc2cccc3c2Nc2ccc(F)cc2NC3)cc1 [Example 49, N-(10,11-Dihydro-8-fluoro-5H-dibenzo(b,e)(1,4)-diazepin-4-yl)-4-methoxybenzenesulfonamide] — 1.9-fold lower, 0.08 µg/mL (≈ 0.2 µM)
- COc1ccc(S(=O)(=O)Nc2cccc3c2Nc2ccccc2CC3)cc1 [Example 6, N-(10,11-Dihydro-5H-dibenz(b,f)azepin-4-yl)-4-methoxybenzenesulfonamide] — 1.7-fold lower, 0.09 µg/mL (≈ 0.237 µM)

The compounds below were run on M5076 (mouse reticulum cell sarcoma) (assay: in vivo antitumor test on M5076 transplanted in BDF1 mice). Settings: 25 mg/kg/day, intraperitoneal, 4 times every other day from 10th day.
Text: in vivo antitumor test on M5076 (mouse reticulum cell sarcoma)
1×10^6 M5076 cells were subcutaneously transplanted into the lateral parts of BDF1 mice (aged 6 to 9 weeks, female). A compound of the present invention was suspended in physiological saline containing 3.5% of dimethyl sulfoxide and 6.5% of Tween 80 and a given amount of the obtained suspension was intraperitoneally administered to the animals 4 times from the 10th day after the transplantation once a day every other day. The control group comprised 10 to 12 animals, while the test group comprised 5 or 6 animals.
On the 21st day after the transplantation, tumors were taken out and weighed. Then the tumor multiplication inhibitory ratio of each test group based on the control group was determined in accordance with the following equation. [formula] T: average tumor weight of the test group. C: average tumor weight of the control group.

`COc1ccc(S(=O)(=O)Nc2cccc3c2Nc2ccc(F)cc2CN3)cc1` [Example 32, N-(10,11-Dihydro-2-fluoro-5dibenzo(b,e) (1,4)-diazepin-6-yl)-4-methoxybenzenesulfonamide] was tested, and the “Inhibitory ratio (tumor weight, 21st day)” value (“Inhibitory ratio” for short) was 84%.

For `COc1ccc(S(=O)(=O)Nc2cccc3c2Nc2ccc(F)cc2CN3)cc1` [Example 32, N-(10,11-Dihydro-2-fluoro-5dibenzo(b,e) (1,4)-diazepin-6-yl)-4-methoxybenzenesulfonamide], the “Survival ratio on 21st day” value was 100%.

Same assay, conditions: 50 mg/kg/day, intraperitoneal, 4 times every other day from 10th day

For `COc1ccc(S(=O)(=O)Nc2cccc3c2Nc2cc(F)c(F)cc2S3)cc1` [Example 28, N-(7,8-Difluoro-10-pbenothiazin-1-yl)-4-methoxy-benenesulfonamide], the “Inhibitory ratio” value was 82%.

For `COc1ccc(S(=O)(=O)Nc2cccc3c2Nc2cc(F)c(F)cc2S3)cc1` [Example 28, N-(7,8-Difluoro-10-pbenothiazin-1-yl)-4-methoxy-benenesulfonamide], the “Survival ratio on 21st day” value was 100%.

Same assay, conditions: 100 mg/kg/day, intraperitoneal, 4 times every other day from 10th day

Point of comparison: `COc1ccc(S(=O)(=O)Nc2cccc3c2Nc2ccccc2CO3)cc1` [Example 17, N-(5,11-Dihydrpdibenz(b,e)(1,4)oxazepin-6-yl)-4-methoxybenzenesulfonamide], “Inhibitory ratio” value 81%. Against it:
- COc1ccc(S(=O)(=O)Nc2cccc3c2Nc2ccc(O)cc2CO3)cc1 [Example 30, N-(5,11-Dibydro-2-bydroxydihenz(b,e)(1,4)oxazepin-6-yl)-4-methoxybenzensulfonamide] — higher, 82%

Point of comparison: `COc1ccc(S(=O)(=O)Nc2cccc3c2Nc2ccc(O)cc2CO3)cc1` [Example 30, N-(5,11-Dibydro-2-bydroxydihenz(b,e)(1,4)oxazepin-6-yl)-4-methoxybenzensulfonamide], “Survival ratio on 21st day” value 100%. Against it:
- COc1ccc(S(=O)(=O)Nc2cccc3c2Nc2ccccc2CO3)cc1 [Example 17, N-(5,11-Dihydrpdibenz(b,e)(1,4)oxazepin-6-yl)-4-methoxybenzenesulfonamide] — the same, 100%
